Results on 13 compounds are retold here after ChEMBL document CHEMBL1151026, “Synthesis and pharmacological evaluation of the enantiomers of the dopamine autoreceptor agonist PD 135385” (Bioorg Med Chem Lett, 1993).

The structures appear in SMILES notation.

Assay [1] addresses T1, D(2) dopamine receptor (Rattus norvegicus, UniProt P61169). Briefly: In vitro agonist binding affinity was determined by displacing the [3H]N-propylnorapomorphine ([3H]NPA) in rat striatal Dopamine receptor D2.
Assay [2] addresses T1, D(2) dopamine receptor. Briefly: Displacement of [3H]spiperone from rat striatal Dopamine receptor D2.
The target in assay [3] is D(1A) dopamine receptor (Rattus norvegicus, UniProt P18901). The experiment in a line: In vitro antagonist binding affinity was determined by displacing the [3H]-SCH- in rat striatal Dopamine receptor D1.
Chain of D(1A) dopamine receptor (P18901 whole entry): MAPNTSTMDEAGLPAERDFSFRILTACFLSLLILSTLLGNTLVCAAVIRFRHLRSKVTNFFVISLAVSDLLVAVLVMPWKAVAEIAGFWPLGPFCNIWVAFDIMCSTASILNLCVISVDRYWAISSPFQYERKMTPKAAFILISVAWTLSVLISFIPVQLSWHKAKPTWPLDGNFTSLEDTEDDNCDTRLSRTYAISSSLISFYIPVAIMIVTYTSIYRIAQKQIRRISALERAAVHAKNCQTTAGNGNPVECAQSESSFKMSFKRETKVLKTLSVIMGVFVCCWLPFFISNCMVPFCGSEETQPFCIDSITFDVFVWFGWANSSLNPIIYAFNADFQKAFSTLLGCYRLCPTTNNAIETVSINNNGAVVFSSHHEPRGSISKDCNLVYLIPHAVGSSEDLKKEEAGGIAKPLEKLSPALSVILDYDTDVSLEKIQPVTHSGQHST
In assay [4] the test system is Rattus norvegicus. Briefly: Tested for % rats with stereotypy at the dose of 20 mg/Kg administered perorally. The class given is functional.
Assay [5] has as its system Rattus norvegicus. Briefly: Percent reversal of the increase inDOPA levels in the striatum of GBL-treated rats when administered intraperitoneally was determined. In kind it is functional. As to conditions: ip.
The test system of assay [6] is Rattus norvegicus. Briefly: Tested for inhibition of dopamine neuronal firing in rat at the dose of 2.5 mg/Kg by intraperitoneal administration. The class given is functional. As to conditions: ip.
Assay [7] has as its system Rattus norvegicus. The experiment in a line: Tested for locomotor activity in rat by peroral administration. In kind it is functional. As to conditions: po.
Assay [8] has as its system Mus musculus. The experiment in a line: Tested for locomotor activity (LMA) in mouse by intraperitoneal administration. In kind it is functional. As to conditions: ip.
Assay [9] relates to Rattus norvegicus. Briefly: Tested for locomotor activity (LMA) in rat by peroral administration. As to conditions: po. The class given is functional.
The test system of assay [10] is Mus musculus. Briefly: Tested for locomotor activity (LMA) in mouse by intraperitoneal administration for the dose >30 mg/kg. In kind it is functional. As to conditions: ip.
In assay [11] the test system is Rattus norvegicus. The experiment in a line: Percent reversal of the increase inDOPA levels in the striatum of GBL-treated rats at 10 mg/kg administered intraperitoneally. In kind it is functional. As to conditions: route intraperitoneal; for Reversal % at 10 mg/kg: ip.
Assay [12] deals with Rattus norvegicus. Briefly: Tested for locomotor activity (LMA) in rat by peroral administration for the dose for the dose of >10 mg/kg. The class given is functional. As to conditions: po.
In assay [13] the test system is Rattus norvegicus. Briefly: Tested for % rats with stereotypy at the dose of 0.3 mg/Kg subcutaneous administration. The class given is functional.
Assay [14] has as its system Rattus norvegicus. The experiment in a line: Tested for locomotor activity in rat by subcutaneous administration. As to conditions: sc.
In assay [15] the test system is Rattus norvegicus. Briefly: Tested for inhibition of dopamine neuronal firing in rat at the dose of 0.25 mg/Kg by intraperitoneal administration. The class given is functional. As to conditions: ip.
In assay [16] the test system is Rattus norvegicus. The experiment in a line: Tested for % rats with stereotypy at the dose of 61 mg/Kg administered perorally. The class given is functional.
For assay [17], the system named is Rattus norvegicus. The experiment in a line: Tested for locomotor activity in Rat by peroral administration. The class given is functional. As to conditions: po.
Assay [18] has as its system Rattus norvegicus. Briefly: Tested for % rats with stereotypy at the dose of 116 mg/Kg administered perorally. The class given is functional.
In assay [19] the test system is Rattus norvegicus. Briefly: Tested for inhibition of Dopamine neuronal firing in rat at the dose of 2.5 mg/Kg by intraperitoneal administration. The class given is functional. As to conditions: ip.
Assay [20] concerns Rattus norvegicus. The experiment in a line: Tested for % rats with stereotypy at the dose of 67 mg/Kg administered perorally. The class given is functional.

T1 sequence (P61169 whole entry): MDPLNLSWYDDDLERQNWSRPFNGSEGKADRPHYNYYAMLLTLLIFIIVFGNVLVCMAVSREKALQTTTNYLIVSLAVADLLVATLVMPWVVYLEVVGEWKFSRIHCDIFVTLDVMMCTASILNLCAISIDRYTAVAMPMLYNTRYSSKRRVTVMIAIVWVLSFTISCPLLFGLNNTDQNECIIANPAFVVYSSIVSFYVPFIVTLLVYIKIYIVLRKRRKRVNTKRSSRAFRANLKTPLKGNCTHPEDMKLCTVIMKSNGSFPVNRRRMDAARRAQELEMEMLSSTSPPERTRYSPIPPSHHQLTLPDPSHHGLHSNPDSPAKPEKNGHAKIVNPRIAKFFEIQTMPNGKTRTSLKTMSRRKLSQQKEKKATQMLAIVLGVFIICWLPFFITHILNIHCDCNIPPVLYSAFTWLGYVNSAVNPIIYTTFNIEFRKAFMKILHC

In general, IC50 refers to the concentration needed to halve the response being measured. Read a high IC50 as a need for much substance. A word on the ED50: it is the dose that gives a 50% effect, or the effect in half of the subjects. As usually defined, the inhibition in vivo is the share of the control response that was lost under treatment. High values mean a strong effect, low ones a weak effect. As for `CN1CCC=C2c3nc(N)sc3CCC21` (racemic), the values for the IC50 in [1], in [2] and in [3] were 202 nM, 2920 nM and over 10000 nM, respectively. In [4], this compound displayed an Activity of 0%. In addition, the results for the ED50 in assay [5] and in assay [7] were 0.7 mg/kg and 0.8 mg/kg, respectively. At 2.5 mg/kg the inhibition in vivo in assay [6] was 99%.
Compound `C1=C(c2ccccc2)CCC(N2CCN(c3ccccn3)CC2)C1` (stereo not drawn) displayed an IC50 in [2] of 600 nM. In addition, the values for the ED50 in assay [8] and in assay [9] were 1 mg/kg and over 30 mg/kg, respectively.
With `C1=C(c2ccccn2)CCC(CCN2CCN(c3ccccn3)CC2)C1` (stereo not drawn), in assay [2], the IC50 came to 128 nM. Moreover, the ED50 in assay [10] is 0.4 mg/kg; in assay [12] it was about 3 mg/kg. In addition, the Reversal in [11] stood at 89%.
Consider `C1=C(c2cccs2)CCC(CN2CCN(c3ccccn3)CC2)C1` (stereo not drawn), for which, in [2], the IC50 amounted to 2430 nM. The same compound gave an ED50 in assay [8] of over 30 mg/kg.
For the compound `C1=C(c2ccccc2)CCC(CCN2CCN(c3ccccn3)CC2)C1` (stereo not drawn), the ED50 in assay [8] is 2.1 mg/kg; in assay [9], 6.7 mg/kg. In addition, in [11], the Reversal amounted to 50%.
Take `C1=C(c2ccccn2)CCC(N2CCN(c3ccccn3)CC2)C1` (stereo not drawn): in assay [2], the IC50 is 1180 nM. Besides, the values for the ED50 in assay [8] and in assay [9] were 0.9 mg/kg and 5.8 mg/kg, respectively. Further, the Reversal in assay [11] was determined as 75%.
As to `C1=C(c2cccs2)CCC(CCN2CCN(c3ccccn3)CC2)C1` (stereo not drawn), the IC50 in assay [2] was 436 nM. The ED50 in [8] was found to be 8.4 mg/kg; in assay [9] it was 13 mg/kg. In assay [11], the Reversal came to 46%.
The compound `C1=C(c2ccccc2)CCC(CN2CCN(c3ccccn3)CC2)C1` (stereo not drawn) registered an IC50 in assay [2] of about 10000 nM. The compound further had an ED50 in assay [8] of about 30 mg/kg.
Take `CN1CCc2cccc3c2[C@H]1Cc1ccc(O)c(O)c1-3` [APOMORPHINE]: the Activity in assay [13] was found to be 100%. Further, the ED50 in assay [5] was 0.3 mg/kg; in assay [14] it was 0.03 mg/kg; in [7], over 30 mg/kg. In assay [15], this compound returned an inhibition in vivo at 0.25 mg/kg of 100%.
With `C1=C(c2ccccc2)CC[C@H](CCN2CCN(c3ccccn3)CC2)C1`, the IC50 in assay [1] was 82 nM; in [2] it was 704 nM; in assay [3], over 6000 nM. Also, the Activity in assay [16] is on record as 0%. Moreover, in assay [11], the Reversal % at 10 mg/kg came out at 49%. Besides, the 50% effect level in assay [17] (ED50) was put at a dose of 6.1 mg/kg. Besides, testing at 2.5 mg/kg in assay [6] gave an inhibition in vivo of 38%.
For `C1=C(c2ccccc2)CC[C@@H](CCN2CCN(c3ccccn3)CC2)C1`, the IC50 in assay [1] is 64 nM; in assay [2] it was 545 nM; in assay [3], over 6000 nM. In assay [18], this compound returned an Activity of 60%. Further, the Reversal % at 10 mg/kg in [11] is 57%. Besides, the inhibition in vivo at 2.5 mg/kg in [19] is 58%. Further, the ED50 in [7] was 9.1 mg/kg.
With `C1=C(c2ccccc2)CCC(CCN2CCN(c3ccccn3)CC2)C1` (racemic), the IC50 in [1] is 88 nM; in assay [2] it was 412 nM; in [3] it was over 6000 nM. In [20], the Activity is listed as 0%. Also, the Reversal % at 10 mg/kg in assay [11] stood at 50%. For the same compound, 2.5 mg/kg produced 41% inhibition in vivo in assay [6]. Further, in [7], the 50% effect level (ED50) was put at a dose of 6.7 mg/kg.
Regarding `C1=C(c2cccs2)CCC(N2CCN(c3ccccn3)CC2)C1` (stereo not drawn), the IC50 in [2] is 352 nM. Besides, the figures for the ED50 in assay [8] and in assay [9] were 9.3 mg/kg and over 30 mg/kg, respectively.
